Results from patent US20030176436A1, “Novel heterocyclic compounds as selective bacterial DHFR inhibitors and their uses thereof” (priority 2001, published 2003).
In brackets after ≈: the same amount, converted by molar mass. Read-outs that look alike come from different tables or passages of the source.

How the values were obtained:
[1] = tested on: E. faecalis; assay: Microdilution antimicrobial susceptibility test (MIC); assay type: cell-based; settings: Enterococcus faecalis; Table 2; 90% inhibition of growth
Experimental: (§1) Stock solutions of tested compounds were prepared in N,N-dimethylformamide (DMF) at a concentration of 5 mg/mL. Working solutions of the tested compounds were then prepared from the stock solutions, in Mueller-Hinton broth (MHB) with a starting concentration of 64 μg/mL.
(§2) Bacterial inocula were prepared from overnight culture (i.e., one fresh colony from agar plate in 5 ml MHB; H. influenzae was grown in MHB with the addition of yeast extract, haematin, and NAD), centrifuged 2×5 min/3000 rpm (for S. pneumoniae and H. influenzae, 2×10 min/3000 rpm), and dispensed in 5 ml of fresh MHB each time, such that the bacterial suspension is diluted to obtain 100 colony forming units (cfu) in a microplate well (100 μl total volume).
(§3) Microplate wells were filled with two-fold dilutions of test compound (50 μl), starting with 64 μg/ml. Wells were then filled with 50 μl of bacterial inoculum (final volume: 100 μl/well). The plates were incubated at 37° C. for 18-24 hours (S. pneumoniae was grown in a CO2-enriched atmosphere).

[2] = tested on: M. catarrhalis; assay: as above; assay type: cell-based; settings: Moraxella catarrhalis; Table 2; 90% inhibition of growth
Experimental: as §1, §2, §3

[3] = tested on: S. aureus; assay: as above; assay type: cell-based; settings: Staphylococcus aureus; Table 2; 90% inhibition of growth; read-out: MIC S. aureus
Experimental: as §1, §2, §3

[4] = tested on: P. aeruginosa; assay: as above; assay type: cell-based; settings: Pseudomonas aeruginosa; Table 2; 90% inhibition of growth
Experimental: as §1, §2, §3

[5] = tested on: S. pneumoniae; assay: as above; assay type: cell-based; settings: Streptococcus pneumoniae; Table 2; 90% inhibition of growth
Experimental: as §1, §2, §3

[6] = tested on: H. influenzae; assay: as above; assay type: cell-based; settings: Haemophilus influenzae, read-out: MIC H. influenzae
Experimental: as §1, §2, §3

[7] = tested on: E. coli; assay: as above; assay type: cell-based; settings: Escherichia coli; Table 2; 90% inhibition of growth
Experimental: as §1, §2, §3

[8] = target: T1, human DHFR (hDHFR) (Homo sapiens, UniProt P00374); assay: DHFR enzyme assay, Ki determination, human DHFR; assay type: biochemical; settings: Table 3
T1 construct: result in the amplification of a 186 amino acid hDHFR coding region; made in house; host or cells: E. coli Top10
T1 sequence (P00374 1-187): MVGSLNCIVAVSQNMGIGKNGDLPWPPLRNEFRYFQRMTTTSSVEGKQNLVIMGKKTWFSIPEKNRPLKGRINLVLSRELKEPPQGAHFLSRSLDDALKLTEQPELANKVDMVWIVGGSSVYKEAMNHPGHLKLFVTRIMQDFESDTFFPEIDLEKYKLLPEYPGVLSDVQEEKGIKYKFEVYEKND
Experimental: The human DHFR cDNA was cloned by PCR from the Human Universal Quick-clone™ cDNA purchased from Clontech.
The PCR fragment was digested with restriction enzymes NdeI and HindIII, and then ligated into a derivative of the pKK223-3 expression vector (Amersham Pharmacia). The final expression vector (pFW96.2) was transformed into E. coli Top10 F40 and hDHFR protein was induced by the addition of 1 mM IPTG followed by incubation at 37° C. for 4 hrs. Recombinant human DHFR was purified based on a previously published procedure (2).
(§4) Dihydrofolic acid and NADPH were purchased from Sigma. Enzyme assays were adapted for microtitre format from a previously published procedure (2, 3). All assays were performed in a 250 μl volume in 96-well microtitre plates. Typical assays consisted of 20 nM DHFR (human or E. coli), 100 μM NADPH, and 50 μM dihydrofolic acid in 100 mM HEPES pH 8, 10 mM KCl, and 10 mM MgCl2. The assay was monitored spectrophotometrically for the conversion of NADPH to NADP+, which results in a decrease in absorbance at 340 nm.
(§5) Five microliters of inhibitor compound in DMSO was added to 120 μl of enzyme solution (40 nM DHFR and 200 μM NADPH). The reaction was initiated by the addition of 125 μl of 100 μM dihydrofolic acid. The final concentrations in the assay were 20 nM DHFR, 100 μM NADPH, 50 μM dihydrofolic acid, and a range of 500 μM to 20 nM inhibitor compound. The final DMSO concentration was 2% of the total volume. Reactions were monitored as described above.
V=(Vmax[S])/(Km(1+I/Ki)+[S]), where S=dihydrofolate, Km=Michaelis constant for dihydrofolate, I=inhibitor concentration.

[9] = target: T2, bacterial DHFR (bDHFR) (Escherichia coli, UniProt P0ABQ4); assay: DHFR enzyme assay, Ki determination, bacterial DHFR; assay type: biochemical, E. coli; settings: Table 3; read-out: bDHFR Ki
T2 construct: gift of Eric Brown, McMaster University
Experimental: Human and Bacterial DHFR: E. coli DHFR was kindly provided by Eric Brown of MacMaster University.
as §4
as §5, with “The” for “Five microliters of inhibitor compound in DMSO was added to 120 μl of enzyme solution (40 nM DHFR and 200 μM NADPH). The”

[10] = tested on: S. cerevisiae; assay: Microdilution susceptibility test (MIC), yeast as indicator of cytotoxicity; assay type: cell-based; settings: Saccharomyces cerevisiae; Table 2; 90% inhibition of growth
From the text: The following table of compounds of one aspect of the invention have potent antimicrobial activity against S. aureus bacteria and are anticipated to have physical-chemical properties similar to those of orally absorbed and bioavailable drugs and drug-like compounds. Antibacterial activity for a variety of bacterial species are shown (S. aureus, S. pneumoniae, E. faecalis, M. catarrhalis, and H. influenzae). The yeast cell (S. cerevisiae) in this panel of organisms is an indicator of potential cytotoxicity in mammalian cells.
as §1, §3

[11] = Table 2, 90% inhibition of growth

| SMILES | MIC [1] [µg/mL] | MIC [2] [µg/mL] | MIC [3] [µg/mL] | MIC [4] [µg/mL] | MIC [5] [µg/mL] | MIC [6, 11] [µg/mL] | MIC [7] [µg/mL] | Ki [8] [µM] | Ki [9] [µM] | MIC [10] [µg/mL] | MIC [6] [µg/mL] |
| --- | --- | --- | --- | --- | --- | --- | --- | --- | --- | --- | --- |
| CN(Cc1cnc2nc(N)nc(N)c2n1)c1ccc(C(=O)NCc2cccnc2)cc1 [Compound 4] | 2 to 8 (≈ 4.81 to 19.3 µM) | 16 to 64 (≈ 38.5 to 154 µM) | 16 to 64 (≈ 38.5 to 154 µM) | > 64 | 2 to 8 (≈ 4.81 to 19.3 µM) | 2 to 8 (≈ 4.81 to 19.3 µM) | > 64 | 0.5 to 0.999 | < 0.1 | > 64 |  |
| COC(=O)c1ccc(N(C)Cc2cnc3nc(N)nc(N)c3n2)cc1 [Compound 17] | < 2 | < 2 | < 2 | > 64 | < 2 | < 2 | > 64 |  | < 0.1 | > 64 |  |
| Nc1nc(N)c2nc(CNc3ccc4c(c3)OCO4)cnc2n1 [Compound 8] | 2 to 8 (≈ 6.42 to 25.7 µM) | 2 to 8 (≈ 6.42 to 25.7 µM) | 2 to 8 (≈ 6.42 to 25.7 µM) | > 64 | 2 to 8 (≈ 6.42 to 25.7 µM) | 2 to 8 (≈ 6.42 to 25.7 µM) | > 64 | > 5 | 1 to 5 | > 64 |  |
| CN(Cc1cnc2nc(N)nc(N)c2n1)c1ccccc1 [Compound 9] | < 2 | 2 to 8 (≈ 7.11 to 28.4 µM) | 2 to 8 (≈ 7.11 to 28.4 µM) | > 64 | < 2 | < 2 | > 64 | > 5 | 0.1 to 0.499 | > 64 |  |
| Nc1nc(N)c2nc(CNc3ccc(F)c([N+](=O)[O-])c3)cnc2n1 [Compound 15] | < 2 | < 2 | < 2 | > 64 | < 2 | < 2 | > 64 | > 5 | 0.1 to 0.499 | 2 to 8 (≈ 6.06 to 24.2 µM) |  |
| Nc1nc(N)c2nc(CNc3ccc([N+](=O)[O-])cc3O)cnc2n1 [Compound 12] |  | 16 to 64 (≈ 48.7 to 195 µM) | > 64 | > 64 | < 2 | 2 to 8 (≈ 6.09 to 24.4 µM) | > 64 | 1 to 5 | 0.1 to 0.499 | > 64 |  |
| CN(Cc1cnc2nc(N)nc(N)c2n1)c1cccc([N+](=O)[O-])c1 [Compound 14] | < 2 | < 2 | < 2 | > 64 | < 2 | < 2 | > 64 | > 5 | < 0.1 | > 64 |  |
| Nc1nc(N)c2nc(CNc3cc(Cl)cc(Cl)c3)cnc2n1 [Compound 11] | < 2 | < 2 | < 2 | > 64 | < 2 |  | > 64 | > 5 | 0.5 to 0.999 | > 64 | > 64 |
